Test results taken from ChEMBL document CHEMBL4308841, “Synthesis, in vitro antiproliferative activity, and kinase inhibitory effects of pyrazole-containing diarylureas and diarylamides” (Eur J Med Chem, 2018).

Assays:
TK-10 = assay: Growth inhibition of human TK10 cells assessed as cell growth at 10 uM incubated for 48 hrs by sulforhodamine B assay relative to control; type: functional; settings: TK-10, 48 h, read-out: Activity
KM12 [1] = assay: Growth inhibition of human KM12 cells incubated for 48 hrs by sulforhodamine B assay; type: functional, cell-based; settings: KM12, 48 h
OVCAR-3 = assay: Growth inhibition of human OVCAR3 cells incubated for 48 hrs by sulforhodamine B assay; type: functional, cell-based; settings: OVCAR-3, 48 h
A498 = assay: Growth inhibition of human A498 cells incubated for 48 hrs by sulforhodamine B assay; type: functional, cell-based; settings: A498, 48 h
DU-145 [2] = assay: Growth inhibition of human DU145 cells incubated for 48 hrs by sulforhodamine B assay; type: functional, cell-based; settings: DU-145, 48 h
A549 = assay: Growth inhibition of human A549/ATCC cells assessed as cell growth at 0.01 uM incubated for 48 hrs by sulforhodamine B assay relative to control; type: functional; settings: A549, 48 h, read-out: Activity
ACHN = assay: Growth inhibition of human ACHN cells assessed as cell growth at 0.01 uM incubated for 48 hrs by sulforhodamine B assay relative to control; type: functional; settings: read-out: Activity
MCF7 = assay: Growth inhibition of human MCF7 cells assessed as cell growth at 0.01 uM incubated for 48 hrs by sulforhodamine B assay relative to control; type: functional; settings: MCF7, 48 h, read-out: Activity
MOLT-4 = assay: Growth inhibition of human MOLT4 cells assessed as cell growth at 0.1 uM incubated for 48 hrs by sulforhodamine B assay relative to control; type: functional; settings: MOLT-4, 48 h, read-out: Activity
HOP-62 = assay: Growth inhibition of human HOP62 cells assessed as cell growth at 0.1 uM incubated for 48 hrs by sulforhodamine B assay relative to control; type: functional; settings: HOP-62, 48 h, read-out: Activity
HCT-116 = assay: Growth inhibition of human HCT116 cells assessed as cell growth at 0.1 uM incubated for 48 hrs by sulforhodamine B assay relative to control; type: functional; settings: HCT-116, 48 h, read-out: Activity
KM12 [3] = assay: Growth inhibition of human KM12 cells assessed as cell growth at 0.1 uM incubated for 48 hrs by sulforhodamine B assay relative to control; type: functional; settings: KM12, 48 h, read-out: Activity
SF-539 = assay: Growth inhibition of human SF539 cells assessed as cell growth at 0.1 uM incubated for 48 hrs by sulforhodamine B assay relative to control; type: functional; settings: SF-539, 48 h, read-out: Activity
SNB-75 [4] = assay: Growth inhibition of human SNB75 cells assessed as cell growth at 0.1 uM incubated for 48 hrs by sulforhodamine B assay relative to control; type: functional; settings: SNB-75, 48 h, read-out: Activity
SK-MEL-28 [5] = assay: Growth inhibition of human SK-MEL-28 cells assessed as cell growth at 0.1 uM incubated for 48 hrs by sulforhodamine B assay relative to control; type: functional; settings: SK-MEL-28, 48 h, read-out: Activity
OVCAR-4 = assay: Growth inhibition of human OVCAR4 cells assessed as cell growth at 0.1 uM incubated for 48 hrs by sulforhodamine B assay relative to control; type: functional; settings: OVCAR-4, 48 h, read-out: Activity
RXF 393 = assay: Growth inhibition of human RXF393 cells assessed as cell growth at 0.1 uM incubated for 48 hrs by sulforhodamine B assay relative to control; type: functional; settings: RXF 393, 48 h, read-out: Activity
RPMI-8226 = assay: Growth inhibition of human RPMI8226 cells assessed as cell growth at 1 uM incubated for 48 hrs by sulforhodamine B assay relative to control; type: functional; settings: RPMI-8226, 48 h, read-out: Activity
KM12 [6] = assay: Growth inhibition of human KM12 cells assessed as cell growth at 1 uM incubated for 48 hrs by sulforhodamine B assay relative to control; type: functional; settings: KM12, 48 h, read-out: Activity
SW-620 = assay: Growth inhibition of human SW620 cells assessed as cell growth at 1 uM incubated for 48 hrs by sulforhodamine B assay relative to control; type: functional; settings: SW-620, 48 h, read-out: Activity
SF-268 = assay: Growth inhibition of human SF268 cells assessed as cell growth at 1 uM incubated for 48 hrs by sulforhodamine B assay relative to control; type: functional; settings: SF-268, 48 h, read-out: Activity
U-251 = assay: Growth inhibition of human U251 cells assessed as cell growth at 1 uM incubated for 48 hrs by sulforhodamine B assay relative to control; type: functional; settings: U-251, 48 h, read-out: Activity
SK-MEL-28 [7] = assay: Growth inhibition of human SK-MEL-28 cells assessed as cell growth at 1 uM incubated for 48 hrs by sulforhodamine B assay relative to control; type: functional; settings: SK-MEL-28, 48 h, read-out: Activity
DU-145 [8] = assay: Growth inhibition of human DU145 cells assessed as cell growth at 1 uM incubated for 48 hrs by sulforhodamine B assay relative to control; type: functional; settings: DU-145, 48 h, read-out: Activity
HT-29 = assay: Growth inhibition of human HT-29 cells assessed as cell growth at 100 uM incubated for 48 hrs by sulforhodamine B assay relative to control; type: functional; settings: HT-29, 48 h, read-out: Activity
KM12 [9] = assay: Growth inhibition of human KM12 cells assessed as cell growth at 100 uM incubated for 48 hrs by sulforhodamine B assay relative to control; type: functional; settings: KM12, 48 h, read-out: Activity
SNB-75 [10] = assay: Growth inhibition of human SNB75 cells assessed as cell growth at 100 uM incubated for 48 hrs by sulforhodamine B assay relative to control; type: functional; settings: SNB-75, 48 h, read-out: Activity
SK-MEL-5 = assay: Growth inhibition of human SK-MEL-5 cells assessed as cell growth at 100 uM incubated for 48 hrs by sulforhodamine B assay relative to control; type: functional; settings: SK-MEL-5, 48 h, read-out: Activity
NCI/ADR-RES = assay: Growth inhibition of human NCI/ADR-RES cells assessed as cell growth at 100 uM incubated for 48 hrs by sulforhodamine B assay relative to control; type: functional; settings: read-out: Activity
786-0 = assay: Growth inhibition of human 786-0 cells assessed as cell growth at 100 uM incubated for 48 hrs by sulforhodamine B assay relative to control; type: functional; settings: 786-0, 48 h, read-out: Activity
[11] = read-out: LC50 (the source's name)
[12] = read-out: pLC50 (the source's name) (converted)

COc1cc(Cl)cc(-c2nn(-c3cccc(NC(=O)c4ccc(Cl)c(Cl)c4)c3)cc2-c2ccncc2)c1
growth at 10 µM (TK-10): 104%

O=C(Nc1cccc(-n2cc(-c3ccncc3)c(-c3cc(O)cc(Cl)c3)n2)c1)Nc1ccc(Cl)c(Cl)c1
GI50 (KM12 [1]; read-out: GI50): 1.5 µM | CC50 (KM12 [1]; [11]): 9 µM | TGI (KM12 [1]; read-out: TGI): 36.9 µM | GI50 (KM12 [1]; read-out: pGI50 (converted)): 1.51 µM | CC50 (KM12 [1]; [12]): 9.12 µM | TGI (KM12 [1]; read-out: pTGI (converted)): 3.72 µM | IC50 (OVCAR-3): 1.96 µM | GI50 (OVCAR-3; read-out: GI50): 1.96 µM | CC50 (OVCAR-3; [11]): > 100 µM | TGI (OVCAR-3; read-out: TGI): 50.5 µM | GI50 (OVCAR-3; read-out: pGI50 (converted)): 1.95 µM | CC50 (OVCAR-3; [12]): > 100 µM | TGI (OVCAR-3; read-out: pTGI (converted)): 5.01 µM | GI50 (A498; read-out: GI50): 2.09 µM | CC50 (A498; [11]): 4.13 µM | TGI (A498; read-out: TGI): 90.6 µM | GI50 (A498; read-out: pGI50 (converted)): 2.09 µM | CC50 (A498; [12]): 41.7 µM | TGI (A498; read-out: pTGI (converted)): 9.12 µM | GI50 (DU-145 [2]; read-out: GI50): 2.5 µM | CC50 (DU-145 [2]; [11]): > 100 µM | TGI (DU-145 [2]; read-out: TGI): 10.1 µM | GI50 (DU-145 [2]; read-out: pGI50 (converted)): 2.82 µM | CC50 (DU-145 [2]; [12]): > 100 µM | TGI (DU-145 [2]; read-out: pTGI (converted)): 10.2 µM | growth at 0.01 µM (A549): 96% | growth at 0.01 µM (ACHN): 91% | growth at 0.01 µM (MCF7): 93% | growth at 0.1 µM (MOLT-4): 94% | growth at 0.1 µM (HOP-62): 97% | growth at 0.1 µM (HCT-116): 102% | growth at 0.1 µM (KM12 [3]): 100% | growth at 0.1 µM (SF-539): 95% | growth at 0.1 µM (SNB-75 [4]): 52% | growth at 0.1 µM (SK-MEL-28 [5]): 97% | growth at 0.1 µM (OVCAR-4): 95% | growth at 0.1 µM (RXF 393): 85% | growth at 1 µM (RPMI-8226): 57% | growth at 1 µM (KM12 [6]): 72% | growth at 1 µM (SW-620): 102% | growth at 1 µM (SF-268): 89% | growth at 1 µM (U-251): 74% | growth at 1 µM (SK-MEL-28 [7]): 90% | growth at 1 µM (DU-145 [8]): 90% | growth at 100 µM (HT-29): -70% | growth at 100 µM (KM12 [9]): -63% | growth at 100 µM (SNB-75 [10]): -15% | growth at 100 µM (SK-MEL-5): -78% | growth at 100 µM (NCI/ADR-RES): 2% | growth at 100 µM (786-0): -58%

O=C(Nc1cccc(-n2cc(-c3ccncc3)c(-c3cc(O)cc(Cl)c3)n2)c1)c1cc(C(F)(F)F)cc(C(F)(F)F)c1
growth at 10 µM (TK-10): 73% | GI50 (KM12 [1]; read-out: GI50): 1.96 µM | CC50 (KM12 [1]; [11]): > 100 µM | GI50 (KM12 [1]; read-out: pGI50 (converted)): 1.95 µM | CC50 (KM12 [1]; [12]): > 100 µM | IC50 (OVCAR-3): 3.28 µM | GI50 (OVCAR-3; read-out: GI50): 3.28 µM | CC50 (OVCAR-3; [11]): > 100 µM | TGI (OVCAR-3; read-out: TGI): 25.7 µM | GI50 (OVCAR-3; read-out: pGI50 (converted)): 3.31 µM | CC50 (OVCAR-3; [12]): > 100 µM | TGI (OVCAR-3; read-out: pTGI (converted)): 10.2 µM | GI50 (A498; read-out: GI50): 4.75 µM | CC50 (A498; [11]): > 100 µM | TGI (A498; read-out: TGI): 90.8 µM | GI50 (A498; read-out: pGI50 (converted)): 4.79 µM | CC50 (A498; [12]): > 100 µM | TGI (A498; read-out: pTGI (converted)): 91.2 µM | GI50 (DU-145 [2]; read-out: GI50): 5.1 µM | CC50 (DU-145 [2]; [11]): > 100 µM | TGI (DU-145 [2]; read-out: TGI): > 100 µM | GI50 (DU-145 [2]; read-out: pGI50 (converted)): 5.25 µM | CC50 (DU-145 [2]; [12]): > 100 µM | TGI (DU-145 [2]; read-out: pTGI (converted)): > 100 µM | growth at 0.01 µM (A549): 95% | growth at 0.01 µM (ACHN): 105% | growth at 0.01 µM (MCF7): 58% | growth at 0.1 µM (MOLT-4): 89% | growth at 0.1 µM (HOP-62): 100% | growth at 0.1 µM (HCT-116): 100% | growth at 0.1 µM (KM12 [3]): 97% | growth at 0.1 µM (SF-539): 91% | growth at 0.1 µM (SNB-75 [4]): 87% | growth at 0.1 µM (SK-MEL-28 [5]): 103% | growth at 0.1 µM (OVCAR-4): 104% | growth at 0.1 µM (RXF 393): 94% | growth at 1 µM (RPMI-8226): 53% | growth at 1 µM (KM12 [6]): 79% | growth at 1 µM (SW-620): 100% | growth at 1 µM (SF-268): 94% | growth at 1 µM (U-251): 53% | growth at 1 µM (SK-MEL-28 [7]): 55% | growth at 1 µM (DU-145 [8]): 93% | growth at 100 µM (HT-29): -5% | growth at 100 µM (SNB-75 [10]): 15% | growth at 100 µM (SK-MEL-5): -45% | growth at 100 µM (NCI/ADR-RES): 9% | growth at 100 µM (786-0): -28%
